Source: patent US7449477B2, “7-phenyl-isoquinoline-5-sulfonylamino derivatives as inhibitors of akt (protein kinase B)” (Eli Lilly and Company, priority 2003, dated 2008)
Structures can show the parent of a compound that is named as a salt.

Molecular target: T1, active human Akt1 (Homo sapiens, UniProt P31749)
T1 construct: Active human recombinant Akt1 (full-length) purified from Sf9 insect cells; purchased Upstate Biotechnology, Inc. 14-276; host or cells: Sf9 insect cells
Assay: Akt1 Phosphorylation Assay (phosphocellulose filter-binding, 33P-Crosstide)
Format: biochemical
Details: active human recombinant Akt1 (full-length) 10 nM; 12.5 μM Crosstide; 20 μM ATP; 30 minutes at room temperature
Procedure: Akt1 Phosphorylation Assay
The assay described measures the phosphorylation of Crosstide by active human Akt1 and other Akt isoforms. Crosstide contains a consensus sequence derived from Akt substrates GSK3b and forkhead transcription factors (FKs). The ^33P-labeled Crosstide substrate is captured by phosphocellulose membrane filter plates.
Active human recombinant Akt1 (full-length) purified from Sf9 insect cells is from Upstate Biotechnology, Inc. (Cat. #14-276, 405 μg/ml). Crosstide substrate, NH2-GRPRTSSFAEG-COOH (M.W.1164) is purchased from Multiple Peptide System (Cat. # L59/GR145-153).
Solution (A): 20% DMSO (dimethylsulphoxide) or Compound in 20% DMSO; Solution (B): Assay Buffer Mix: 31.25 μM Crosstide, 37.5 mM MgCl2, 87.5 mM HEPES, pH 7.3, 50 μM ATP γ-^33P-ATP, 0.05 μCi/μl; Solution (C): Akt Kinase Mix: 31.25 mM HEPES, pH 7.3; 1 mM DTT, 25 nM UBI Akt1.
Procedure for Phosphocellulose Filter-Binding Assay
Ten μl of Solution (A) are first mixed with 20 μl Solution (B). The enzymatic reaction is initiated by adding 20 μl Solution (C) to the mixture. (Final concentration or amount in a 50-μl reaction mix: 4% DMSO or various compound concentration in 4% DMSO; 12.5 μM Crosstide; 15 mM MgCl2; 35 mM HEPES, pH7.3; 20 μM ATP; 1 μCi γ-^33P-ATP; 0.4 mM DTT; 10 nM UBI Akt1.) The reactions are performed in 96-well microtiter plates.
After 30 minutes at room temperature, the reaction is terminated by adding 80 μl of 10% H3PO4. An aliquot of 100 μl from each well is transferred to the phosphocellulose filter plate (Millipore MultiScreen, Catalog #MAPHN0B50). After 30 minutes, the reaction mix is filtered with a Millipore manifold following by 3 washes with 0.5% H3PO4. The filter is then vacuum-dried and the plate is fitted onto a Packard carrier. 100 μl/well Microscint20 are added and the contents are counted in a Packard Top Count.

T1 sequence (P31749 whole entry): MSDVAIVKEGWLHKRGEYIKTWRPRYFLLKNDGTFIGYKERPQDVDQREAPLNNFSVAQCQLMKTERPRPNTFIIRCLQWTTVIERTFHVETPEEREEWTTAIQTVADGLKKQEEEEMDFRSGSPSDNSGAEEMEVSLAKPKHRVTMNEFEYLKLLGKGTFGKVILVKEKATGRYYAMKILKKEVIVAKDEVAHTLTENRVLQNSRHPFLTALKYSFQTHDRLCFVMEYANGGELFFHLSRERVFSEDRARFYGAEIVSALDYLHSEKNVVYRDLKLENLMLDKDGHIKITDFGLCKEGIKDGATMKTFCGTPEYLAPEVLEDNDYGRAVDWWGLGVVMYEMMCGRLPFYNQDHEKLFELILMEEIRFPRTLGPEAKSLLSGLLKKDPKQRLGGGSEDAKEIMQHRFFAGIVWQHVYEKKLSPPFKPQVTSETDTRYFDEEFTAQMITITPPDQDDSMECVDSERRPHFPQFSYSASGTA

With `CS(=O)(=O)c1ccc(CCCNCCNS(=O)(=O)c2cc(-c3ccccc3)cc3cnccc23)cc1` [Example 100, 7-Phenyl-isoquinoline-5-sulfonic acid {2-[3-(4-methanesulfonyl-phenyl)-propylamino]-ethyl}-amide, dihydrochloride salt] as the compound, how does the IC50 read?
Its IC50 is ≤ 2000 nM.

For `O=[N+]([O-])c1ccc(CCCNCCNS(=O)(=O)c2cc(-c3ccccc3O)cc3cnccc23)cc1` [Example 91, 7-(2-hydroxy-phenyl)-isoquinoline-5-sulfonic acid {2-[3-(4-nitro-phenyl)-propylamino]-ethyl}-amide, dihydrochloride salt], which IC50 is on record?
Its IC50 is ≤ 2000 nM.

Which IC50 does the source give for `O=[N+]([O-])c1cccc(C(O)CCNCCNS(=O)(=O)c2cc(-c3ccccc3)cc3cnccc23)c1` (stereo not drawn) [Example 77, 7-Phenyl-isoquinoline-5-sulfonic acid [2-(3-hydroxy-3-(3-nitrophenyl)-propylamino)-ethyl]-amide, dihydrochloride salt] here?
Its IC50 is ≤ 2000 nM.

For `Nc1cccc(-c2cc(S(=O)(=O)NCCNCCCc3ccc([N+](=O)[O-])cc3)c3ccncc3c2)c1` [Example 92, 7-(3-aminophenyl)-isoquinoline-5-sulfonic acid [2-(3-(4-nitrophenyl)-propylamino)-ethyl]-amide, trihydrochloride salt], which IC50 is on record?
The IC50 was ≤ 2000 nM.

With `O=[N+]([O-])c1ccc(CCCNCCNS(=O)(=O)c2cc(-c3ccccc3)cc3cnccc23)c(CCO)c1` [Example 58, 7-Phenyl-isoquinoline-5-sulfonic acid {2-[3-(2-(2-hydroxy-ethyl)-4-nitro-phenyl)-propylamino]-ethyl}-amide, dihydrochloride salt] as the compound, how does the IC50 read?
The IC50 was ≤ 2000 nM.

Which IC50 does the source give for `O=S(=O)(NCCNCCCc1ccccc1N1CCNCC1)c1cc(-c2ccccc2)cc2cnccc12` [Example 11, 7-Phenyl-isoquinoline-5-sulfonic acid {2-[3-(2-(piperazin-1-yl-phenyl)-propylamino]-ethyl}-amide, tetrahydrochloride salt] here?
The IC50 was ≤ 2000 nM.

With `COC(=O)c1cc([N+](=O)[O-])ccc1CCCNCCNS(=O)(=O)c1cc(-c2ccccc2)cc2cnccc12` [Example 62, 7-Phenyl-isoquinoline-5-sulfonic acid {2-[3-(2-methoxycarbonyl-4-nitrophenyl)-propylamino]-ethyl}-amide, dihydrochloride salt] as the compound, how does the IC50 read?
The IC50 was ≤ 2000 nM.

Which IC50 does the source give for `O=C(Nc1ccc(CCCNCCNS(=O)(=O)c2cc(-c3ccccc3)cc3cnccc23)cc1)C1CC1` [Example 25, 7-Phenyl-isoquinoline-5-sulfonic acid {2-[3-(4-(cyclopropyl-carbonylamino)phenyl)-propylamino]-ethyl}-amide, dihydrochloride salt] here?
The IC50 was ≤ 2000 nM.

With `Cc1ccc([N+](=O)[O-])cc1CCCNCCNS(=O)(=O)c1cc(-c2ccccc2)cc2cnccc12` [Example 39, 7-Phenyl-isoquinoline-5-sulfonic acid {2-[3-(2-methyl-5-nitrophenyl)-propylamino]-ethyl}-amide, dihydrochloride salt] as the compound, how does the IC50 read?
Its IC50 is ≤ 2000 nM.

With `O=S(=O)(NCCNCCC(O)c1ccc(S(=O)(=O)C(F)(F)F)cc1)c1cc(-c2ccccc2)cc2cnccc12` (stereo not drawn) [Example 80, 7-Phenyl-isoquinoline-5-sulfonic acid [2-(3-hydroxy-3-(4-trifuoromethanesulfonyl-phenyl)-propylamino)-ethyl]-amide, dihydrochloride salt] as the compound, how does the IC50 read?
The IC50 was ≤ 2000 nM.

Which IC50 does the source give for `O=S(=O)(NCCNCCCc1ccc(Cl)cc1C1CCNCC1)c1cc(-c2ccccc2)cc2cnccc12` [Example 53, 7-Phenyl-isoquinoline-5-sulfonic acid {2-[3-(4-chloro-2-(piperidin-4-yl)-phenyl)-propylamino]-ethyl}-amide, trihydrochloride salt] here?
The IC50 was ≤ 2000 nM.

With `N#Cc1ccc(C(O)CCNCCNS(=O)(=O)c2cc(-c3ccccc3)cc3cnccc23)cc1` (stereo not drawn) [Example 75, 7-Phenyl-isoquinoline-5-sulfonic acid [2-(3-hydroxy-3-(4-cyanophenyl)-propylamino)-ethyl]-amide, dihydrochloride salt] as the compound, how does the IC50 read?
Its IC50 is ≤ 2000 nM.
